How the values were obtained:
CDK5/D25 = molecular target: T1, CDK5/D25 (Homo sapiens, UniProt Q00535); assay: CDK5 kinase inhibition (33P-ATP, histone H1); assay type: biochemical; conditions: buffer C, 30° C., 15 μM ATP, read-out: IC50 μM Kinases CDK5
T1 construct: made in house
Protocol: The protein kinase inhibition activities of the compounds of the invention are tested according to the following general procedure:
Buffer C: 60 mM β-glycerophosphate, 15 mM p-nitrophenyl-phosphate, 25 mM Mops (pH 7.2), 5 mM EGTA, 15 mM mgCl2, 1 mM DTT, 1 mM sodium vanadate and 1 mM phenylphosphate.
The controls were made with suitable dilutions of DMSO.
ATP (3.000 Ci/mmol.; 10 mCi/mL) in a final volume of 30 μL. After 30 mins of incubation at 30° C., 25 μL of supernatant aliquots were deposited on phosphocellulose Whatman P81 paper pieces of 2.5×3 cm, and after 20 seconds, the filters were washed five times (for at least 5 minutes each time) in a solution of 10 mL of phosphoric acid/1 litre of water. The wet filters were counted in the presence of 1 mL of scintillation fluid ACS (Amersham).

GSK-3αβ = assay: GSK-3 kinase inhibition (GS-1 substrate); conditions: read-out: IC50 μM Kinases GSK3, buffer A, 30° C., 15 μM ATP
fibroblast = assay: Cytotoxicity on human cells, automated nuclei counting: fibroblast; assay type: cell-based; conditions: exposed 24 h to 48 h, 0.1 to 25 μM
Protocol: (§1) Cytotoxicity: This method is based on an automated imaging analysis. 4.10^3 cells were cultivated on 96-well plates and left for 24 hours so as to bind, to spread and proliferate.
(§2) All the cell lines were cultivated in a DMEM or RPMI (Invitrogen) medium. All these media were completed with antibiotics (penicillin-streptomycin) (Lonza) and 10% by volume of fetal calf serum (Invitrogen). The cells were cultivated at 37° C. with 5% of CO2. The treatments with the molecules to be tested were carried out with increasing concentrations. The control experiments were also carried out by using suitable dilutions of DMSO (maximum 1% DMSO).

NCI (lung) = assay: Cytotoxicity on human cells, automated nuclei counting: NCI; assay type: cell-based; conditions: exposed 24 h to 48 h, 0.1 to 25 μM
Protocol: as §1, §2

Caco (colon) = assay: Cytotoxicity on human cells, automated nuclei counting: Caco; assay type: cell-based; conditions: exposed 24 h to 48 h, 0.1 to 25 μM
Protocol: as §1, §2

Huh7 (liver) = assay: Cytotoxicity on human cells, automated nuclei counting: Huh7; assay type: cell-based; conditions: Huh-7, exposed 24 h to 48 h, 0.1 to 25 μM
Protocol: as §1, §2

DYRK1A = DYRK1A (Homo sapiens, UniProt Q13627); assay: DYRK1A kinase inhibition (Woodtide substrate)
PC3 (prostate) = assay: Cytotoxicity on human cells, automated nuclei counting: PC3; assay type: cell-based; conditions: PC-3, exposed 24 h to 48 h, 0.1 to 25 μM
Protocol: as §1, §2

MDA-MB 231 (breast) = assay: Cytotoxicity on human cells, automated nuclei counting: MDA-MB 231; assay type: cell-based; conditions: MDA-MB 231 cells, exposed 24 h to 48 h, 0.1 to 25 μM
Protocol: as §1, §2

HCT 116 (colon) = assay: Cytotoxicity on human cells, automated nuclei counting: HCT 116; assay type: cell-based; conditions: HCT 116 cells, exposed 24 h to 48 h, 0.1 to 25 μM
Protocol: as §1, §2

T1 sequence (Q00535 whole entry): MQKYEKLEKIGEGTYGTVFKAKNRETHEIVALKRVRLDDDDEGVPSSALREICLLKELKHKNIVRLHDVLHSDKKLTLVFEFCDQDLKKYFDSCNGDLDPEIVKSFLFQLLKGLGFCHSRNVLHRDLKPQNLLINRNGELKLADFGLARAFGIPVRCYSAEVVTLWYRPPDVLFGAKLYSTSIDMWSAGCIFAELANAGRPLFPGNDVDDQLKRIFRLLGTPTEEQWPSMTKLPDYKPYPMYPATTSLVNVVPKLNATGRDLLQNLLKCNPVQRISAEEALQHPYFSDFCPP
T1 sequence (Q15078 99-307 partner limits assumed): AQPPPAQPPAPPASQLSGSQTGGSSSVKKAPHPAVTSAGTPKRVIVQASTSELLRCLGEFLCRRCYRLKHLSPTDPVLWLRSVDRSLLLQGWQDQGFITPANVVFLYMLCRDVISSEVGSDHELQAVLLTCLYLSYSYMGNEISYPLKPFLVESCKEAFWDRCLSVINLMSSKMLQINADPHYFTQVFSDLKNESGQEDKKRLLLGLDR

Row | Compound | melting point | IC50 (CDK5/D25) | IC50 (GSK-3αβ) | IC50 (DYRK1A) | IC50 (fibroblast) | IC50 (NCI (lung)) | IC50 (Caco (colon)) | IC50 (Huh7 (liver)) | IC50 (PC3 (prostate)) | IC50 (MDA-MB 231 (breast)) | IC50 (HCT 116 (colon))
1 | Cc1cc(NC(=O)Nc2cccc3c2C2CCCCN2C3=O)no1 (stereo not shown) [Compound 24, 1-(5-Méthylisoxazol-3-yl)-3-(6-oxo-1,2,3,4,6,10b-hexahydropyrido[2,1-a]isoindol-10-yl)urea] | 156 °C | 2.7 µM | 0.033 µM | > 10 µM | 12 µM | 10 µM | 3 µM | 3 µM | 6 µM | 3 µM | 2 µM
2 | O=C(Nc1ccc(Br)cn1)Nc1cccc2c1C1CC3(CCN1C2=O)SCCS3 (stereo not shown) [Compound 31, 1-(5-Bromopyridin-2-yl)-3-(6′-oxo-3′,4′,6′,10b′-tetrahydro-1′H-spiro[[1,3]dithiolane-2,2′-pyrido[2,1-a]isoindole]-10′-yl)urea] | 240 °C | 7.3 µM | 0.068 µM | ≥ 10 µM | 8 µM | 1.5 µM | 5 µM | 0.8 µM | 3 µM | 4 µM | 1.2 µM
3 | O=C(Nc1nc2ccccc2s1)Nc1cccc2c1C1CCCCN1C2=O (stereo not shown) [Compound 34, 1-(Benzo[d]thiazol-2-yl)-3-(6-oxo-1,2,3,4,6,10b-hexahydropyrido[2,1-a]-isoindol-10-yl)urea] | 260 °C | 16 µM | 3.5 µM | 88 µM | 2 µM | 4 µM | 0.7 µM | 0.6 µM | 1 µM | 1.5 µM | 0.5 µM
4 | O=C(Nc1ncccn1)Nc1cccc2c1C1CCCCN1C2=O (stereo not shown) [Compound 42, 1-(6-oxo-1,2,3,4,6,10b-hexahydro-pyrido[2,1-a]isoindol-10-yl)-3-pyrimidin-2-yl-urea] | 232 °C | > 10 µM | 0.75 µM | > 10 µM | 2.5 µM | 8 µM | 2 µM | 0.6 µM | 2 µM | 4 µM | 4 µM
5 | Cc1cccnc1NC(=O)Nc1cccc2c1C1CC3(CCN1C2=O)OCCO3 (stereo not shown) [Compound 45] | > 260 °C | 3.1 µM | 0.61 µM | > 10 µM | > 25 µM | > 25 µM | > 25 µM | > 25 µM | > 25 µM | > 25 µM | 25 µM
6 | Cc1cccc(NC(=O)Nc2cccc3c2C2CC4(CCN2C3=O)OCCO4)n1 (stereo not shown) [Compound 46] | 240 to 242 °C | > 10 µM | 0.92 µM | > 10 µM | 20 µM | 12 µM | 10 µM | 12 µM | 12 µM | 15 µM | 10 µM
7 | O=C(Nc1cccc(Br)n1)Nc1cccc2c1C1CC3(CCN1C2=O)OCCO3 (stereo not shown) [Compound 47] | 184 to 186 °C | > 10 µM | 0.89 µM | > 10 µM | 20 µM | 20 µM | 12 µM | 8 µM | 6 µM | 20 µM | 6 µM
8 | COc1cc(NC(=O)Nc2cccc3c2C2CC4(CCN2C3=O)OCCO4)nc2ccccc12 (stereo not shown) [Compound 48] | 258 to 260 °C | > 10 µM | 1 µM | > 10 µM | 20 µM | 20 µM | > 25 µM | 8 µM | 8 µM | 4 µM | 8 µM
9 | Cc1cccc(NC(=O)Nc2cccc3c2C2CC4(CCN2C3=O)SCCS4)n1 (stereo not shown) [Compound 50] | 154 to 156 °C | > 10 µM | 2 µM | > 10 µM | 2 µM | 15 µM | 10 µM | 5 µM | 6 µM | 15 µM | 12 µM
10 | COc1cc(NC(=O)Nc2cccc3c2C2CC(OC)CCN2C3=O)nc2ccccc12 (stereo not shown) [Compound 55, 1-(2-Methoxy-6-oxo-1,2,3,4,6,10b-hexahydropyrido[2,1-a]isoindol-10-yl)-3-(4-methoxyquinolin-2-yl)urea] | > 260 °C | 8.5 µM | 0.18 µM | > 10 µM | 10 µM | 5 µM | 10 µM | 3 µM | 3 µM | 15 µM | 2.5 µM
11 | O=C1c2cccc(NC(=S)Nc3cnccn3)c2C2CCCCN12 (stereo not shown) [Compound 63, 1-(6-Oxo-1,2,3,4,6,10b-hexahydropyrido[2,1-a]isoindol-10-yl)-3-(pyrazin-2-yl)thiourea] | 204 °C | 26 µM | 8 µM | > 100 µM | > 25 µM | > 25 µM | > 25 µM | > 25 µM | > 25 µM | > 25 µM | > 25 µM
12 | O=C1c2cccc(NC(=S)Nc3cc[nH]n3)c2C2CCCCN12 (stereo not shown) [Compound 64, 1-(6-Oxo-1,2,3,4,6,10b-hexahydropyrido[2,1-a]isoindol-10-yl)-3-(1H-pyrazol-3-yl)thiourea] | 208 °C | 56 µM | 16 µM | ≥ 100 µM | > 25 µM | 25 µM | 20 µM | 8 µM | 6 µM | 25 µM | 20 µM

These reach a lower IC50 (CDK5/D25). Values come first.

Row | melting point | IC50 (CDK5/D25) | IC50 (GSK-3αβ) | IC50 (DYRK1A) | Compound | IC50 (fibroblast) | IC50 (NCI (lung)) | IC50 (Caco (colon)) | IC50 (Huh7 (liver)) | IC50 (PC3 (prostate)) | IC50 (MDA-MB 231 (breast)) | IC50 (HCT 116 (colon))
13 | 178 to 180 °C | 0.43 µM | 0.76 µM | > 10 µM | O=C(Nc1cscn1)Nc1cccc2c1C1CCCCN1C2=O (stereo not shown) [Compound 26, 1-(6-Oxo-1,2,3,4,6,10b-hexahydropyrido[2,1-a]isoindol-10-yl)-3-(thiazol-4-yl)urea] | 4 µM | 5 µM | 0.8 µM | 1.2 µM | 2 µM | 0.4 µM | 0.8 µM
14 | 146 °C | 0.53 µM | 0.12 µM | > 10 µM | Cc1nc(NC(=O)Nc2cccc3c2C2CCCCN2C3=O)cs1 (stereo not shown) [Compound 35, 1-(2-Methylthiazol-4-yl)-3-(6-oxo-1,2,3,4,6,10b-hexahydropyrido[2,1-a]isoindol-10-yl)urea] | 0.4 µM | 3 µM | 0.7 µM | 0.9 µM | 1.5 µM | 1.5 µM | 0.6 µM
15 | 152 °C | 1.7 µM | 0.13 µM | 2.4 µM | O=C(Nc1csc(-c2ccncc2)n1)Nc1cccc2c1C1CCCCN1C2=O (stereo not shown) [Compound 37, 1-(6-Oxo-1,2,3,4,6,10b-hexahydropyrido[2,1-a]isoindol-10-yl)-3-(2-(pyridin-4-yl)thiazol-4-yl)urea] | 3 µM | 4 µM | 1.5 µM | 2 µM | 1 µM | 1.5 µM | 0.7 µM
16 | > 260 °C | 0.22 µM | 0.05 µM | > 10 µM | Cc1cnc(NC(=O)Nc2cccc3c2C2CC4(CCN2C3=O)SCCS4)cn1 (stereo not shown) [Compound 51] | 8 µM | 0.8 µM | 0.5 µM | 0.3 µM | 0.4 µM | 0.4 µM | 0.2 µM
17 | 140 to 142 °C | 0.32 µM | 0.14 µM | > 10 µM | COC1CCN2C(=O)c3cccc(NC(=O)Nc4cnc(C)cn4)c3C2C1 (stereo not shown) [Compound 59, 1-(2-methoxy-6-oxo-1,2,3,4,6,10b-hexahydropyrido[2,1-a]isoindol-10-yl)-3-(5-methylpyrazin-2-yl)urea] | 5 µM | 6 µM | 12 µM | 1.2 µM | 5 µM | 6 µM | 3 µM

— patent US20120095022A1, “DERIVATIVES OF 10-AMINO-1,2,3,4-TETRAHYDROPYRIDO[2,1-A]ISOINDOL-6(10BH)-ONES, METHOD FOR PREPARATION THEREOF AND THERAPEUTIC USES THEREOF” (UNIVERSITE D'ORLEANS, priority 2009, published 2012)
